Patent US10681909B2, “Herbicidal triazoles” (FMC Corporation, priority 2014, dated 2020)

Assays:
[1] = system: speedwell; experiment: Test D postemergence; type: in vivo, Veronica persica; conditions: scale 0 to 100
From the text: (§1) Seeds of plant species selected from bluegrass (annual bluegrass, Poa annua), blackgrass (Alopecurus myosuroides), canarygrass (Phalaris minor), chickweed (common chickweed, Stellaria media), galium (catchweed bedstraw, Galium aparine), bromegrass, down (downy bromegrass, Bromus tectorum), Russian thistle (Salsola kali), field poppy (Papaver rhoeas), field violet (Viola arvensis), foxtail, green (green foxtail, Setaria viridis), deadnettle (henbit deadnettle, Lamium amplexicaule), ryegrass, Ital. (Italian ryegrass, Lolium multiflorum), kochia (Kochia scoparia), lambsquarters (Chenopodium album), oilseed rape (Brassica napus), pigweed (Amaranthus retroflexus), chamomile (scentless chamomile, Matricaria inodora), speedwell (bird's-eye speedwell, Veronica persica), barley, spring (spring barley, Hordeum vulgare), wheat, spring (spring wheat, Triticum aestivum), buckwheat, wild (wild buckwheat, Polygonum convolvulus), wild mustard (Sinapis arvensis), oat, wild (wild oat, Avena fatua), radish, wild (wild radish, Raphanus raphanistrum), […]), barley, winter (winter barley, Hordeum vulgare), and wheat, winter (winter wheat, Triticum aestivum) were planted into a silt loam soil and treated preemergence with test chemicals formulated in a non-phytotoxic solvent mixture which included a surfactant. At the same time, these species were planted in pots containing Sunshine Redi-Earth® planting medium comprising spaghnum peat moss, vermiculite, starter nutrients and dolomitic limestone and treated with postemergence applications of the test chemicals formulated in the same manner. Plants ranged in height from 2 to 18 cm (1- to 4-leaf stage). Treated plants and controls were maintained in a controlled growth environment for 14 to 21 d after which time all species were compared to controls and visually evaluated. […] A dash (-) response means no test result.

[2] = system: Russian thistle; experiment: Test D postemergence; type: in vivo, Salsola kali; conditions: scale 0 to 100
From the text: as §1

[3] = system: pigweed; experiment: Test D preemergence; type: in vivo, Amaranthus retroflexus; conditions: for Plant response rating (0 to 100), Pigweed: 16 g ai/ha, 0 is no effect, 100 is complete control; for Plant response rating: Pigweed: scale 0 to 100
From the text: as §1

[4] = system: field violet; experiment: Test D postemergence; type: in vivo, Viola arvensis; conditions: scale 0 to 100
From the text: as §1

[5] = system: field poppy; experiment: Test D preemergence; type: in vivo, Papaver rhoeas; conditions: for Plant response rating (0 to 100), Field Poppy: 16 g ai/ha, 0 is no effect, 100 is complete control; for Plant response rating: Field Poppy: scale 0 to 100
From the text: as §1

[6] = system: deadnettle; experiment: Test D postemergence; type: in vivo, Lamium amplexicaule; conditions: scale 0 to 100
From the text: as §1

[7] = system: chamomile; experiment: Test D postemergence; type: in vivo, Matricaria inodora; conditions: scale 0 to 100
From the text: as §1

[8] = system: field poppy; experiment: Test D postemergence; type: in vivo, Papaver rhoeas; conditions: scale 0 to 100
From the text: as §1

[9] = system: foxtail, green; experiment: Test D postemergence; type: in vivo, Setaria viridis; conditions: scale 0 to 100
From the text: as §1

[10] = system: waterhemp; experiment: Test C preemergence; type: in vivo, Amaranthus rudis; conditions: for Waterhemp plant response rating (0 to 100): Preemergence, visual rating after 13 to 15 d; for Plant response rating (scale of 0 to 100 where 0 is no effect and 100 is complete control): Waterhemp, preemergence, 250 g ai/ha
From the text: Seeds of plant species selected from blackgrass (Alopecurus myosuroides), ryegrass, Italian (Italian ryegrass, Lolium multiflorum), wheat (winter wheat, Triticum aestivum), galium (catchweed bedstraw, Galium aparine), corn (Zea mays), crabgrass, large (large crabgrass, Digitaria sanguinalis), foxtail, giant, (giant foxtail, Setaria faberii), johnsongrass (Sorghum halepense), lambsquarters (Chenopodium album), morningglory (Ipomoea coccinea), nutsedge, yellow (yellow nutsedge, Cyperus esculentus), pigweed (Amaranthus retroflexus), ragweed (common ragweed, Ambrosia elatior), soybean (Glycine max), barnyardgrass (Echinochloa crus-galli), oilseed rape (Brassica napus), waterhemp (common waterhemp, Amaranthus rudis), and velvetleaf (Abutilon theophrasti) were planted into a blend of loam soil and sand and treated preemergence with test chemicals formulated in a non-phytotoxic solvent mixture which included a surfactant. At the same time, plants selected from these crop and weed species and also chickweed (common chickweed, Stellaria media), oat, wild (wild oat, Avena fatua), and kochia (Kochia scoparia), were planted in pots containing Sunshine Redi-Earth® planting medium comprising spaghnum peat moss, vermiculite, starter nutrients and dolomitic limestone and treated with postemergence applications of test chemicals formulated in the same manner. Plants ranged in height from 2 to 18 cm (1- to 4-leaf stage) for postemergence treatments. […] A dash (-) response means no test result.

[11] = system: ragweed; experiment: Test A preemergence; type: in vivo, Ambrosia elatior; conditions: 0 to 100 scale (0 no effect, 100 complete control)
Method in brief: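 Seeds sown in loam soil–sand blend received a directed preemergence soil spray of test chemical in non-phytotoxic solvent with surfactant; postemergence plants, 2 to 10 cm at one- to two-leaf stage, were sprayed with the same formulation. Injury visually rated versus untreated controls after ~10 d in greenhouse, 0–100 scale.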

Row | Structure (SMILES) | Plant response rating: Speedwell ([1]; 16 g ai/ha) | Plant response rating: Speedwell ([1]; 31 g ai/ha) | Plant response rating: Speedwell ([1]; 62 g ai/ha) | Plant response rating: Speedwell ([1]; 125 g ai/ha) | Plant response rating: Russian Thistle ([2]; 16 g ai/ha) | Plant response rating: Russian Thistle ([2]; 31 g ai/ha) | Plant response rating: Russian Thistle ([2]; 62 g ai/ha) | Plant response rating: Russian Thistle ([2]; 125 g ai/ha) | Plant response rating (0 to 100), Pigweed [3] | Plant response rating: Pigweed ([3]; 62 g ai/ha) | Plant response rating: Pigweed ([3]; 125 g ai/ha) | Plant response rating: Field Violet ([4]; 16 g ai/ha) | Plant response rating: Field Violet ([4]; 31 g ai/ha) | Plant response rating: Field Violet ([4]; 62 g ai/ha) | Plant response rating: Field Violet ([4]; 125 g ai/ha) | Plant response rating (0 to 100), Field Poppy [5] | Plant response rating: Field Poppy ([5]; 62 g ai/ha) | Plant response rating: Field Poppy ([5]; 125 g ai/ha) | Plant response rating: Deadnettle ([6]; 16 g ai/ha) | Plant response rating: Deadnettle ([6]; 31 g ai/ha) | also measured
1 | FC(F)(F)COc1nc(-c2ccccc2)nn1Cc1ccnc(C(F)(F)F)c1 [Compound 24] | 75 | 75 | 75 | 90 | 65 | 75 | 85 | 85 | 95 | 100 | 100 | 70 | 75 | 80 | 90 | 95 | 100 | 100 | 40 | 60 | Plant response rating: Deadnettle ([6]; 62 g ai/ha): 70; Plant response rating: Deadnettle ([6]; 125 g ai/ha): 85; Plant response rating: Chamomile ([7]; 16 g ai/ha): 30; Plant response rating: Chamomile ([7]; 31 g ai/ha): 20; Plant response rating: Chamomile ([7]; 62 g ai/ha): 20; Plant response rating: Chamomile ([7]; 125 g ai/ha): 30; Plant response rating: Field Poppy ([8]; 16 g ai/ha): 60; Plant response rating: Field Poppy ([8]; 31 g ai/ha): 75; Plant response rating: Field Poppy ([8]; 62 g ai/ha): 80; Plant response rating: Field Poppy ([8]; 125 g ai/ha): 100; Plant response rating: Foxtail, Green ([9]; 16 g ai/ha): 15; Plant response rating: Foxtail, Green ([9]; 31 g ai/ha): 25; Plant response rating: Foxtail, Green ([9]; 62 g ai/ha): 65; Plant response rating: Foxtail, Green ([9]; 125 g ai/ha): 65; Waterhemp plant response rating (0 to 100) ([10]; 31 g ai/ha): 100; Waterhemp plant response rating (0 to 100) ([10]; 62 g ai/ha): 100; Plant response rating (scale of 0 to 100 where 0 is no effect and 100 is complete control) [10]: 100; Plant response rating, Ragweed ([11]; 500 g ai/ha, approx. 10 d): 40
2 | CCOc1nc(-c2ccccc2)nn1Cc1ccnc(C(F)(F)F)c1 [Compound 27] | 75 | 85 | 95 | 95 | 75 | 80 | 85 | 85 | 100 | 100 | 100 | 70 | 75 | 80 | 80 | 95 | 100 | 100 | 55 | 75 | Plant response rating: Deadnettle ([6]; 62 g ai/ha): 95; Plant response rating: Deadnettle ([6]; 125 g ai/ha): 100; Plant response rating: Chamomile ([7]; 16 g ai/ha): 15; Plant response rating: Chamomile ([7]; 31 g ai/ha): 15; Plant response rating: Chamomile ([7]; 62 g ai/ha): 20; Plant response rating: Chamomile ([7]; 125 g ai/ha): 35; Plant response rating: Field Poppy ([8]; 16 g ai/ha): 75; Plant response rating: Field Poppy ([8]; 31 g ai/ha): 80; Plant response rating: Field Poppy ([8]; 62 g ai/ha): 85; Plant response rating: Field Poppy ([8]; 125 g ai/ha): 100; Plant response rating: Foxtail, Green ([9]; 16 g ai/ha): 35; Plant response rating: Foxtail, Green ([9]; 31 g ai/ha): 65; Plant response rating: Foxtail, Green ([9]; 62 g ai/ha): 80; Plant response rating: Foxtail, Green ([9]; 125 g ai/ha): 95; Waterhemp plant response rating (0 to 100) ([10]; 31 g ai/ha): 100; Waterhemp plant response rating (0 to 100) ([10]; 62 g ai/ha): 100; Plant response rating (scale of 0 to 100 where 0 is no effect and 100 is complete control) [10]: 100; Plant response rating, Ragweed ([11]; 125 g ai/ha): 90; Plant response rating, Ragweed ([11]; 500 g ai/ha, approx. 10 d): 100
3 | COc1nc(-c2ccc(Cl)cc2)nn1Cc1ccnc(C(F)(F)F)c1 [Compound 28] | 75 | 75 | 85 | 80 | 70 | 75 | 85 | 85 | 100 | 100 | 100 | 75 | 80 | 100 | 100 | 70 | 100 | 100 | 50 | 60 | Plant response rating: Deadnettle ([6]; 62 g ai/ha): 70; Plant response rating: Deadnettle ([6]; 125 g ai/ha): 75; Plant response rating: Chamomile ([7]; 16 g ai/ha): 10; Plant response rating: Chamomile ([7]; 31 g ai/ha): 15; Plant response rating: Chamomile ([7]; 62 g ai/ha): 15; Plant response rating: Chamomile ([7]; 125 g ai/ha): 25; Plant response rating: Field Poppy ([8]; 16 g ai/ha): 65; Plant response rating: Field Poppy ([8]; 31 g ai/ha): 65; Plant response rating: Field Poppy ([8]; 62 g ai/ha): 65; Plant response rating: Field Poppy ([8]; 125 g ai/ha): 70; Plant response rating: Foxtail, Green ([9]; 16 g ai/ha): 25; Plant response rating: Foxtail, Green ([9]; 31 g ai/ha): 35; Plant response rating: Foxtail, Green ([9]; 62 g ai/ha): 60; Plant response rating: Foxtail, Green ([9]; 125 g ai/ha): 80; Plant response rating, Ragweed ([11]; 125 g ai/ha): 10; Plant response rating, Ragweed ([11]; 500 g ai/ha, approx. 10 d): 40
